test system: gastric mucosa; test: PD: Gastric Mucosal Integrity Test (gastric mucosal potential difference); type: in vivo, rat (male Crj:SD); parameters: key: 5: Same as the control with no recognizable damage at all.; 4: Though a slight PD-decreasing tendency suggesting a slight possibility of mucosal damage is found, there is no problem.; 3: Though a weak decrease in PD and a possibility of a weak mucosal damage is recognized, there is no substantial problem.; 2: Medium degree of decrease in PD is found and a mucosal damage is recognized.; 1: Heavy degree of decrease in PD is found and a remarkable mucosal damage is recognized; settings: 100 mg/kg into chamber, rats, 60 minutes
Procedure: PD: Gastric Mucosal Integrity Test
In this case, since the sample compound has a necrotizing effect, it is inappropriate as an anti-ulcer medicament.
Therefore, the gastric mucosal potential difference (PD), which reflects the integrity of the gastric mucosa, is measured so as to confirm that the sample compound has no damaging effect on gastric mucosa, which is toxicity at gastric mucosal level.
Male Crj:SD rats (7 to 8-week-old) were fasted overnight, but allowed free access to water, and then, under urethane anesthesia (1.25 g/kg, i.p.), fixed to a cork board on its back. The abdomen of each rat was incised, and a small incision was made in the forestomach. Then, the inside of the stomach was washed with physiological saline heated at 37° C. From the forestomach, along the greater curvature thereof, the stomach was incised without damaging blood vessels. After the height of the cork board was adjusted on a jack, the stomach was mounted on ex vivo chamber. The area of the gastric mucosa exposed to the inside of this chamber was 2.5 cm^2. The inside of the chamber was perfused with physiological saline warmed at 37° C. by micro tube pump. By using an agar bridge containing 3M KCl, the potential difference between the chamber and the abdominal cavity was measured by a PD meter. Here, the rectal temperature was measured to control the body temperature during the experiment. After the PD was sufficiently stabilized, the perfusate was stopped and then 100 mg/10 ml/kg of the sample compound dissolved or suspended in an aqueous solution of 0.5% sodium carboxymethyl cellulose or 0.05% Tween 80 was administered into the chamber, while PD was recorded for 60 minutes. To a control, the vehicle was administered.
The change in PD during 60 minutes after the administration of 100 mg/kg of the sample compound was collectively studied and, with reference to the positive control, classified into 5 levels as follows:
5: Same as the control with no recognizable damage at all.
3: Though a weak decrease in PD and a possibility of a weak mucosal damage is recognized, there is no substantial problem.
2: Medium degree of decrease in PD is found and a mucosal damage is recognized.
1: Heavy degree of decrease in PD is found and a remarkable mucosal damage is recognized.

| SMILES | PD: change in gastric mucosal potential difference, 5 levels |
| --- | --- |
| CC(C)=CCOc1ccc(C(=O)NCCN2CCOCC2)cc1OCC=C(C)C [Example 35] | 5 |
| CC(C)=CCOc1ccc(C(=O)NCCN2CCOCC2)cc1 [Example 28] | 5 |
| CC(C)=CCC/C(C)=C/COc1ccc(C(=O)NCCN2CCOCC2)cc1 [Example 31] | 3 |

Reference: patent US5814634A, “Alkylenediamine derivative anti-ulcer drug and antibacterial drug” (Shiseido Co. Ltd., priority 1996, dated 1998)
